Tests used:
Cath.a cells = assay: In vitro neuroprotection assay (MPTP/MPP+ cytotoxicity, MTT cell viability); type: cell-based, mouse
Procedure: (§1) Cell lines used were from ATCC. Cath.a cells (sp. = mouse, cat# CRL-11179, ATCC, Manassas, Virginia, US), a CNS catecholaminergic cell line, were cultured according to ATCC instructions and were induced to CAD differentiated status by serum deprivation (0.5% FBS culture for 36 h) prior to experiments as described (Qi et al., 1997, Neurosci, 17, 1217-25). PC12 (sp. = rat, ATCC #CRL-1721) were cultured in RPMI 10% FBS. PC12 differentiation used Minimal Essential M medium containing 1% HS and 0.5% FBS, then the cells were treated with 100 ng/ml NGF, 100 ng/ml basic fibroblast growth factor (bFGF), and serum-starved media containing 2 mg/ml BSA for 2 days (Joen et al., 2010. Synapse, 64, pgs 765-72).
Neuroprotective effects were assessed based on the ability of both individual compounds and mixtures of compounds to protect against neuronal cell death induced by 1-methyl-4-phenylpyridinium (MPP+) in the 1-methyl-4-phenyl-1,2,3,6-tetrahydropyridine (MPTP)-based selective cytotoxicity assay (Arshad et al., 2014, Acta Biochim Biophys Sin (Shanghai), 46, 22-30). MPP+ is an active metabolite of MPTP that is known to cause human Parkinsonism after injection. […] Cell viability was assessed 24 h after exposure to MPP, which is […] after exposure to the tested compound or compound mixture. […]

[1] = system: differentiated PC12 cells; assay: In vitro dopamine-release assay (Dopamine ELISA); type: cell-based, rat; conditions: 10 µM of each compound; 30 mins; normalized to PMA/Ionomycin control; mean +/- SD
Procedure: as §1
In parallel with the neuroprotection assays, cannabinoid and terpene compounds were tested alone and in mixtures to determine their effects on dopamine release from differentiated PC12 cells. PC12 cells were differentiated as in (Joen et al., 2010. Synapse, 64, pgs 765-72; Hu et al., 2018, Int J Mol Med, 41, 195-201). Supernatant samples were collected from 3 replicate wells 30 mins after application of PMA/Ionomycin (positive control) or the indicated compounds, and dopamine was measured in the medium using the Dopamine ELISA Kit #KA1887 from Abnova (Abnova, California, US) according to manufacturer’s instructions. […]

zebrafish larvae = assay: Validation of the larval zebrafish OHDA model; type: in vivo
Procedure: All compounds were diluted in 100% methanol (MeOH) and experiments were performed in a HEPES buffered E3 (HE3) medium (5 mM NaCl, 0.17 mM KCl, 0.33 mM CaCl2-2H2O, 0.33 mM MgSO4-7H2O, 10 mM HEPES, pH 7.2). Individual 120 hours post fertilization (hpf) larval zebrafish were transferred to a 48-well microtiter plate in 500 µL of HE3 media. Larvae were acclimated for at least one hour in a lighted 28.5° C. incubator (photon flux: 3-5 µmol s-1 m2) prior to experimentation and larval behavior was analyzed using DanioVision larval tracking systems with EthoVisionXT14/15 software (Noldus Information Technology Inc., Virginia, USA). Distance traveled was measured using dynamic subtraction at 28.5° C. over 120 minutes with the first 90 minutes under lighted conditions (15 µmol m-2 s-1), followed by alternating 5-minute dark/light cycles. Each larvae represents an independent measurement. […] 12 larvae were used in each experimental condition, and at least 2 replicates of each concentration were performed.
Larvae were exposed to varying concentrations of 6-hydroxydopamine (OHDA) from 48-120 hours post fertilization (hpf). 15 dechorionated larvae were transferred in 5 mL of HE3 to each well of a six-well plate. The 5 mL exposure media was replaced daily, and ascorbic acid/saline buffer (used to resuspend OHDA) was used as a vehicle control. Larvae were then loaded into 48-well microtiter plate in 500 µL of HE3 media as described above.
In addition to distance travelled, activity was measured as a percentage change in pixel density during data acquisition. […] The frequency with which larvae switched between activity states and the cumulative duration of time spent in each activity state was then measured. Metrics were captured in 1 min bins, and the average over 90 minutes was used to calculate each metric in each activity state. For frequency calculations, the number of times larvae switched between activity states (high, moderate, and low) was calculated (termed Total Frequency). The cumulative amount of time spent in the high and moderate activity states combined (termed Cumulative Duration) was averaged over 90 minutes and measured as a percentage.

CCCCCc1cc(O)c2c(c1)OC(C)(CCC=C(C)C)C=C2 (centres unmarked) [CBC, Cannabichromene]
neuroprotective effect of individual compounds (Cath.a cells; 10 µM, MPTP/MPP+ induced apoptosis): all of the individual cannabinoids except CBC displayed some neuroprotective effects

C=C(C)[C@@H]1CCC(C)=C[C@H]1c1c(O)cc(CCCCC)cc1O [CBD, Cannabidiol]
effect of adding a major cannabinoid to MIX-1, MIX-2, MIX-3 on cell survival (Cath.a cells; 10 µM each, equimolar): increased cell survival in all three mixtures | DOPA release [1]: 6.0 +/- 0.3%

CCCCCc1cc(O)c2c(c1)OC(C)(C)c1ccc(C)cc1-2 [CBN, Cannabinol]
DOPA release [1]: 8.1 +/- 0.4%

NCCc1cc(O)c(O)cc1O [OHDA, 6-hydroxydopamine]
startle response (zebrafish larvae; 150 µM OHDA): not impacting the startle response | maximum response to the light/dark transition (startle response) (zebrafish larvae; 225 µM OHDA): non-significant increase in the maximum response to the light/dark transition | baseline activity during initial 90-minute period in the light (zebrafish larvae; OHDA exposure 48-120 hpf): concentration-dependent decrease in the baseline activity | fraction of time in high activity (zebrafish larvae; OHDA treated larvae): 1% | fraction of time in moderate activity (zebrafish larvae; OHDA treated larvae): 5% | fraction of time in the inactive state (zebrafish larvae; OHDA treated larvae): ~ 90% | reduction in activity state transitions for all three states (zebrafish larvae; OHDA treatment vs untreated): 50-60%
